The target of test [1] is T1, HIV-1 RT-associated RNase H function (Human immunodeficiency virus type 1 group M subtype B, UniProt P04585).
T1 construct: The 1:1 ration between the p66/p51 subunits was also verified; His6; made in house; host or cells: E. coli strain M15
Description: HIV-1 DNA polymerase-independent RNase H activity determination (wt RT). Type of test: biochemical. The settings on record: for remaining activity at 100 µM: in the presence of 100 µM of the compound, read-out: Percentage of residual enzyme activity (RNase H); for IC50: concentration required to reduce the enzyme activity by 50%, read-out: RnaseH IC50. As for the experimental part:
(§1) HIV-1 RT group M subtype B. Heterodimeric RT was expressed essentially as previously described. Briefly, E. coli strain M15 containing the p6HRT-prot vector was grown to an optical density at 600 nm of 0.7 and induced with 1.7 mM isopropyl β-D-1-thiogalactopyranoside (IPTG) for 4 h. Protein purification was carried out with a BioLogic LP system (Biorad), using a combination of immobilised metal affinity and ion exchange chromatography. Cell pellets were resuspended in lysis buffer (50 mM sodium phosphate buffer pH 7.8, containing 0.5 mg/mL lysozyme), incubated on ice for 20 min, and after adding NaCl to a final concentration of 0.3 M, were sonicated and centrifuged at […] for 1 h. The supernatant was loaded onto a Ni^2+-NTA-Sepharose column pre-equilibrated with loading buffer (50 mM sodium phosphate buffer pH 7.8, containing 0.3 M NaCl, 10% glycerol, and 10 mM imidazole) and washed thoroughly with wash buffer (50 mM sodium phosphate buffer pH 6.0, containing 0.3 M NaCl, 10% glycerol, and 80 mM imidazole). RT was eluted with an imidazole gradient in wash buffer (0–0.5 M). Fractions were collected, protein purity was checked by SDS-PAGE and found to be higher than 90%. The 1:1 ration between the p66/p51 subunits was also verified. Enzyme-containing fractions were pooled and diluted 1:1 with 50 mM sodium phosphate buffer pH 7.0, containing 10% glycerol; and then loaded into a Hi-trap heparin HP GE (Healthcare Lifescience) pre-equilibrated with 10 column volumes of loading buffer (50 mM sodium phosphate buffer pH 7.0, containing 10% glycerol and 150 mM NaCl). The column was then washed with loading buffer and the RT was eluted with Elute Buffer 2 (50 mM sodium phosphate pH 7.0, 10% glycerol, 1 M NaCl). Fractions were collected, protein was dialysed and stored in buffer containing 50 mM Tris-HCl pH 7.0, 25 mM NaCl, 1 mM EDTA, and 50% glycerol. Catalytic activities and protein concentrations were determined. Enzyme-containing fractions were pooled and aliquots were stored at −80 °C.
(§2) HIV RT-associated RNase H activity was measured as described[36] using the RNase H inhibitor RDS1759[11] as a control. In 100 µL reaction volume containing 50 mM Tris-HCl buffer pH 7.8, 6 mM MgCl2, 1 mM dithiothreitol (DTT), 80 mM KCl, 0.25 µM hybrid RNA/DNA 5′-GAUCUGAGCCUGGGAGCU-Fluorescin-3′ (HPLC, dry, QC: Mass Check) (available from Metabion) 5′-Dabcyl-AGCTCCCAGGCTCAGATC-3′ (HPLC, dry, QC: Mass Check), increasing concentrations of inhibitor, whose dilution were made in water, and 20 ng of wt RT according to a linear range of dose-response curve. The reaction mixture was incubated for 1 h at 37 °C, stopped by addition of EDTA and products were measured with a multilabel counter plate reader Victor 3 (Perkin Elmer model 1420–051) equipped with filters for 490/528 nm (excitation/emission wavelength).

The test system of the next test is HIV-1 integrase. Further details: method as in earlier work. The settings on record: cited from earlier work.
The target in test [2] is T2, HIV-1 RT-associated RDDP function (Human immunodeficiency virus type 1 group M subtype B, UniProt P04585).
T2 construct: The 1:1 ration between the p66/p51 subunits was also verified; His6; made in house; host or cells: E. coli strain M15
As to the kind of experiment: HIV-1 RNA-dependent DNA polymerase (RDDP) activity determination. Type of test: biochemical. The following applies: for remaining activity at 100 µM: read-out: Percentage of residual enzyme activity (RDDP); for IC50: wt RT. As for the experimental part:
as §1
RNA-dependent DNA polymerase (RDDP) activity was measured as described[37] using the NNRTI Efavirenz as a control. In 25 µL volume containing 60 mM Tris-HCl buffer pH 8.1, 8 mM MgCl2, 60 mM KCl, 13 mM DTT, 2.5 µM poly (A)- oligo (dT), 100 µM dTTP, increasing concentrations of inhibitor, whose dilution were made in water, and 6 ng of wt RT according to a linear range of dose-response curve. After enzyme addition, the reaction mixture was incubated for 30 min at 37 °C and the stopped by addition of EDTA. Reaction products were detected by picogreen addition and measured with a multilabel counter plate reader Victor 3 (Perkin Elmer model 1420–051) equipped with filters for 502/523 nm (excitation/emission wavelength).

Test [3] has as its system HIV-1 RT R448A, RNase H function. As to the kind of experiment: RNase H inhibition on mutated RT R448A. Format: biochemical. The following applies: RNase H IC50 ratio mutant/wt. As for the experimental part: as §2
(§3) The QuikChange mutagenesis kit (Agilent Technologies Inc., Santa Clara, CA) was used to introduce amino acid substitutions into the p66 HIV-1 RT subunit coded in a p6HRT- prot plasmid by following the manufacturer’s instructions.
(§4) In order to verify this hypothesis, it was chosen to perform site-directed mutagenesis, determining the independent impact of several amino acid substitutions on the potency of the compound to inhibit the RNase H function. All the selected aminoacids are localised in the RNase H domain and are potentially crucial for the binding of RNase H function inhibitors. […]

The target of test [4] is T3, HIV-1 RT R448A, RNase H function (Human immunodeficiency virus type 1 group M subtype B, UniProt P04585, R1035A).
T3 construct: introduce amino acid substitutions into the p66 HIV-1 RT subunit coded in a p6HRT- prot plasmid; His6; made in house; host or cells: E. coli strain M15
Description: RNase H inhibition on mutated RT R448A. Type of test: biochemical. As for the experimental part: as §2, §3, §4

Test [5] concerns the target T4, HIV-1 RT A502F, RNase H function (Human immunodeficiency virus type 1 group M subtype B, UniProt P04585, A1089F).
T4 construct: introduce amino acid substitutions into the p66 HIV-1 RT subunit coded in a p6HRT- prot plasmid; His6; made in house; host or cells: E. coli strain M15
Description: RNase H inhibition on mutated RT A502F. Format: biochemical.
Description: (§5) HIV RT-associated RNase H activity was measured as described[36] using the RNase H inhibitor RDS1759[11] as a control. In 100 µL reaction volume containing 50 mM Tris-HCl buffer pH 7.8, 6 mM MgCl2, 1 mM dithiothreitol (DTT), 80 mM KCl, 0.25 µM hybrid RNA/DNA 5′-[sequence]-Fluorescin-3′ (HPLC, dry, QC: Mass Check) (available from Metabion) 5′-Dabcyl-[sequence]-3′ (HPLC, dry, QC: Mass Check), increasing concentrations of inhibitor, whose dilution were made in water, and 20 ng of wt RT according to a linear range of dose-response curve. The reaction mixture was incubated for 1 h at 37 °C, stopped by addition of EDTA and products were measured with a multilabel counter plate reader Victor 3 (Perkin Elmer model 1420–051) equipped with filters for 490/528 nm (excitation/emission wavelength).
(§6) The next mutation involved the residue A502 located in the alpha helix, close to the second identified allosteric binding pocket. […] A502 residue was replaced by a phenylalanine with the aim to provoke a shift of alpha helix that might reduce the space between the two subunits p51 and p66 and therefore hinder the entrance of the compound in the pocket.

Test [6] concerns HIV-1 RT A502F, RNase H function. Description: RNase H inhibition on mutated RT A502F. Type of test: biochemical. The settings on record: RNase H IC50 ratio mutant/wt.
Description: as §5, §6
For test [7], the target named is T5, HIV-1 RT A508V, RNase H function (Human immunodeficiency virus type 1 group M subtype B, UniProt P04585, A1095V).
T5 construct: introduce amino acid substitutions into the p66 HIV-1 RT subunit coded in a p6HRT- prot plasmid; His6; made in house; host or cells: E. coli strain M15
As to the kind of experiment: RNase H inhibition on mutated RT A508V. Format: biochemical. As for the experimental part:
as §2, §3, §4

Test [8] concerns HIV-1 RT R557A, RNase H function. As to the kind of experiment: RNase H inhibition on mutated RT R557A. Type of test: biochemical. The following applies: RNase H IC50 ratio mutant/wt. As for the experimental part:
as §2, §3, §4

In test [9] the target is T6, HIV-1 RT R557A, RNase H function (Human immunodeficiency virus type 1 group M subtype B, UniProt P04585, R1144A).
T6 construct: introduce amino acid substitutions into the p66 HIV-1 RT subunit coded in a p6HRT- prot plasmid; His6; made in house; host or cells: E. coli strain M15
Description: RNase H inhibition on mutated RT R557A. Format: biochemical. As for the experimental part: as §2, §3, §4

The target in test [10] is T7, HIV-1 RT V108F, RNase H function (Human immunodeficiency virus type 1 group M subtype B, UniProt P04585, V695F).
T7 construct: introduce amino acid substitutions into the p66 HIV-1 RT subunit coded in a p6HRT- prot plasmid; His6; made in house; host or cells: E. coli strain M15
As to the kind of experiment: RNase H inhibition on mutated RT V108F. Type of test: biochemical. As for the experimental part:
as §2, §3, §4

Test [11] addresses HIV-1 RT L503F, RNase H function (Human immunodeficiency virus 1, UniProt P04585, L1090F). Description: RNase H inhibition on mutated RT L503F. Type of test: biochemical. The settings on record: row printed L503F. As for the experimental part:
as §2, §3, §4

Where [12] appears, read: in the presence of 100 µM of the compound.

As usually defined, the IC50 is the midpoint of a concentration-inhibition curve. `COc1ccc(-c2cc(=O)c3c(O)c(OC)c(OC)cc3o2)cc1` [Compound 1, salvigenin]: the remaining activity at 100 µM in [1] is 80%. For the same compound, the half-maximal inhibitory concentration (IC50) in test [1] (wt RT) was over 100 µM.

Regarding `COc1cc2oc(-c3ccc(O)cc3)cc(=O)c2c(O)c1OC` [Compound 2, cirsimaritin], in [1] (wt RT), the “decrease in RNase H inhibitory activity relative to cirsiliol (3)” value was determined as 10 folds and the half-maximal inhibitory concentration (IC50) worked out at 89 ± 7 µM.

Take `COc1cc2oc(-c3ccc(O)c(O)c3)cc(=O)c2c(O)c1OC` [Compound 3, cirsiliol]: the IC50 in test [1] (wt RT) was 8.2 ± 0.6 µM. For the same compound, in the test with HIV-1 integrase, the “concentration inhibiting HIV-1 integrase” value was 12 µM.

On to `CC(=O)OCC12C(O)CC(C)C3(CC(c4ccoc4)OC3=O)C1CCC(=O)C21CO1` (stereo not shown) [Compound 4, teuflavin], for which the remaining activity at 100 µM in test [1] worked out at 80%. Also, the half-maximal inhibitory concentration (IC50) in test [1] (wt RT) is over 100 µM.

Turning to `CC(=O)OCC1=C2C(COC3OC(CO)C(O)C(O)C3OC(C)=O)CC(C)C3(CC(c4ccoc4)OC3=O)C2CCC1` (stereo not shown) [Compound 5, teuflavoside], the remaining activity at 100 µM in test [1] turned out to be 74%. Also, in test [1] (wt RT), the half-inhibitory concentration (IC50) was over 100 µM.

Take `CC(=O)OCC1=CCCC2C1=CCC(C)C21CC(c2ccoc2)OC1=O` (stereo not shown) [Compound 6, Flavuglaucin A]: in test [2] (setting [12]), the remaining activity at 100 µM worked out at 80%. The half-inhibitory concentration (IC50) in test [2] is over 100 µM. In test [1] (wt RT), the “folds less active on RNase H than flavuglaucin B (7)” value (“folds less active” below) is “about two” and the IC50 was found to be 20.2 ± 2 µM.

As to `CC1CC=C2C(CO)=CCCC2C12CC(c1ccoc1)OC2=O` (stereo not shown) [Compound 7, Flavuglaucin B], the “loss in potency, R448A vs wild type” value in [3] was 5.5 fold. Moreover, the half-inhibitory concentration (IC50) in test [4] is 49.7 µM; in test [5], 32.8 µM; in test [7], over 100 µM; in test [9], 59.2 µM; in test [2], over 100 µM; in test [1] (wt RT), 9.1 ± 0.2 µM. Moreover, in test [11], the IC50 turned out to be 27.3 µM. The “loss in potency, A502F vs wild type” value in test [6] was 3.5 fold. Besides, the “loss in potency, R557A vs wild type” value in test [8] was 6.5 fold. For the same compound, the “Percentage of residual enzyme activity (RDDP)” value in test [2] (setting [12]) turned out to be 80%. Further, the “change of RNase H IC50 against V108F compared with the wild type enzyme” value in test [10] is “slight increase in IC50”.

`CC1=C2CCC(C)C3(CC(c4ccoc4)OC3=O)C2CCC1=O` (stereo not shown) [Compound 8, Flavuglaucin C]: the remaining activity at 100 µM in test [2] (setting [12]) is 80%. The IC50 in test [2] was over 100 µM. In test [1] (wt RT), the “folds less active” value was “about six” and the 50% inhibitory concentration (IC50) is 52.4 ± 0.4 µM.

Consider `CC1CCC2=C(C=O)CCCC2C12CC(c1ccoc1)OC2=O` (stereo not shown) [Compound 9], for which the remaining activity at 100 µM in [2] (setting [12]) worked out at 80%. The IC50 in test [2] was over 100 µM. For the same compound, in test [1] (wt RT), the “folds less active” value is “four” and the half-maximal inhibitory concentration (IC50) was determined as 36.4 ± 0.4 µM.
